Series [1] relates to MCF-10A cells. Type of series: cell-based, human. The following applies: 72 h. The protocol:
(§1) The compounds were studied for antiproliferative activity by standard MTT dye reduction assay. Cell cultures from different cell line types (MCF-10A, MCF-7 and MDA-MB-231) were incubated with the test substances at a concentration of 15 to 2000 μM for 72 h. The antiproliferative activity expressed in % relative to the negative control was determined. The obtained results are shown on Figure 2. MCF-10A is a reliable model for normal human mammary epithelial cells, which serves as a control in experiments to determine antitumor activity. The IC50 values, found in MCF-10A, are used to calculate a selective index (SI), which assesses the potential of a substance to be used as an antitumor agent. We used the following formula to calculate the selective index SI = IC50 of MCF-10A / IC50 of tumor cells. The highest selective index with respect to MCF-7 is shown by the substances: Si3 (SI = 8.35), Si11 (SI = 2.62) and Si1 (SI = 1.24).
(§2) The antiproliferative activity testing was performed on cell cultures from several human cell lines using the standard MTT-dye reduction assay, described by Mosmann. The assay is based on the metabolism of the tetrazolium salt MTT to insoluble formazan by mitochondrial reductases. The formazan concentration can be determined spectrophotometrically. The measured absorption is an indicator of cell viability and metabolic activity. Cell lines: mammary gland type A adenocarcinoma ER+, PR+, HER2- (MCF-7), triple-negative breast cancer ER-, PR-, HER2- (MDA-MB-231) and breast, non-tumorigenic epithelial cell line (MCF-10A) were used in experiments. The cell lines were routinely grown as monolayers in 75 cm^2 tissue culture flasks under standard conditions (described above). Cells were plated at a density of 1 × 10^3 cells in 100 µL in each well of 96-well flat-bottomed microplates and allowed to adhere for 24 h before treatment with test compounds. A concentration range from 15 to 2000 μM was applied for 72 h. The formazan absorption was registered using a microplate reader at λ = 540 nm. Antiproliferative activities were expressed as IC50 values (concentrations required for 50% inhibition of cell growth), calculated using non-linear regression analysis (GraphPad Software, San Diego, CA, USA).

The test system of series [2] is MDA-MB-231 cells. It is filed as cell-based, human. The following applies: 72 h. The protocol: as §1, §2
For series [3], the system named is MCF-7 cells. It is filed as cell-based, human. The note with it: for selectivity with respect to the studied tumor cell lines (in words): MCF-7 and MDA-MB-231 versus MCF-10A. The procedure:
as §1, §2

The nature of series [4]: In vitro cytotoxicity testing (3T3 NRU test). Type of series: cell-based. The note with it: mouse. The procedure: The newly synthesized compounds were studied for cytotoxicity by standard method (3T3 NRU-test). The cells were incubated with the test substances at a concentration of 30 to 4000 μM for 24 h. The cytotoxicity expressed, in % relative to the negative control was determined.
The cytotoxicity testing was performed as described by Borenfreund et al. and the latest modification of the validated BALB/3T3 clone A31 Neutral Red Uptake Assay (3T3 NRU test) for cytotoxicity testing. BALB/3T3, clone A31 mouse embryo cells were grown as monolayer in 75 cm^2 tissue culture flasks in DMEM high-glucose (4.5 g/L), supplemented with 10% FBS and antibiotics (Sigma-Aldrich, Schnelldorf, Germany). Cultures were maintained at 37.5 °C in a humidified atmosphere under 5% CO2. Cells were plated at a density of 1 × 10^4 cells in 100 μL culture medium in each well of 96-well flat-bottomed microplates (Biologix, Lenexa, KS, USA) and allowed to adhere for 24 h. The test compounds, dissolved in DMSO and diluted in culture medium to concentration range 30 to 4000 μM were then added and the cell cultures were incubated for additional 24 h. […] After treatment with Neutral Red medium, washing and treatment with the Ethanol/Acetic acid solution (NR Desorb), the absorption was measured on a TECAN microplate reader (TECAN, Grödig, Austria) at wavelength 540 nm.

Series [5] has as its system Escherichia coli K12 407. It is filed as cell-based. The note with it: for antibacterial effect, zones free of microbial growth (in words): agar diffusion, E. coli K12 407. The procedure: Antibacterial properties of the obtained new peptides and their conjugates were tested against E. coli K12 407 strain. Antibacterial activity of tested compounds was proven through appear of free zone around the loaded disk-paper by means of agar-diffusion method (Figure 3).
All newly synthesized derivatives of (KLAKLAK)2-NH2 at two concentrations 10 μM and 20 μM, were tested against facultative anaerobic gram-negative Esherichia coli NBIMCC K12 407. The strains were obtained from the culture collection of Bulgarian National Bank for Industrial Microorganisms and Cell Cultures (Sofia, Bulgaria) and were cultured in Luria-Bertani (LB) medium (Mumbai, India). The microbiological tests were performed using the agar diffusion method. The overnight pure cultures from tested strains were prepared in liquid LB-medium. A single colony was used for inoculating the liquid LB medium in order to maintain initial bacterial concentration of 1 × 10^7 cfu/mL. 100 µL of bacterial suspensions were seeded on agar plates with solid LB-medium. After 30 min, sterile paper disks 6 mm in diameter were soaked with tested samples in amount of 6 µL and placed on the agar petri dishes surface. The plates were incubated for 24 h at 37 °C. The appeared inhibition zones and their size were measured. The sterile paper disks soaked with water was used as blank. Mean values were calculated by performing the experiments in triplicates.
(In general: A growth-free zone around the sample is the usual read-out of agar diffusion tests.)

Setting [6] is: MDA-MB-231, MTT, 15 to 2000 μM, read-out: IC50 of Mean ± SD, Antiproliferative Activity, MDA-MB-231.

Read-outs that look alike come from different tables or passages of the source. Non-standard residues stand in square brackets, D forms with d. Residues, ends and D or L forms follow the SMILES beside them. *: point of attachment. Acetyl(1,8-naphthalimido) = O=C1c2cccc3cccc(c23)C(=O)N1CC(=O)*; Caffeoyl = O=C(/C=C/c1ccc(O)c(O)c1)*; Nle = CCCC[C@H](N)C(=O)O; βAla = NCCC(=O)O

With `CC(C)C[C@H](NC(=O)[C@H](CCCCN)NC(=O)CCNC(=O)[C@H](CC(C)C)NC(=O)[C@H](CCCCN)NC(=O)CN1C(=O)c2cccc3cccc(c23)C1=O)C(=O)NCCC(=O)N[C@@H](CCCCN)C(N)=O` [Si2, 1,8-naphthalimideG-KLβAKLβAK-NH2] ({Acetyl(1,8-naphthalimido)}-KL[βAla]KL[βAla]K-NH2), the IC50 was found to be 666 ± 20.9 µM in series [1], 840 ± 21.2 µM in series [2] and 663 ± 20 µM in series [3] (72 h). Also, the “selectivity with respect to the studied tumor cell lines (in words)” value (shortened to “selectivity”) in series [3] was “no significant SI is observed”. The IC50 at 24 h in series [4] was 1430 ± 48.4 µM.
For the compound `CCCC[C@H](NC(=O)[C@H](CCCCN)NC(=O)[C@H](C)NC(=O)[C@H](CCCC)NC(=O)[C@@H](N)CCCCN)C(=O)N[C@@H](C)C(=O)N[C@@H](CCCCN)C(N)=O` [Si13, KnLAKnLAK-NH2] (H-K[Nle]AK[Nle]AK-NH2; N-terminus assumed), the IC50 was above 2000 µM in series [1], above 2000 µM in series [2] and 1700 ± 112 µM in series [3] (72 h). The IC50 at 24 h in series [4] is above 4000 µM.
In the case of `CCCC[C@H](NC(=O)[C@H](CCCCN)NC(=O)/C=C/c1ccc(O)c(O)c1)C(=O)N[C@@H](C)C(=O)N[C@@H](CCCCN)C(=O)N[C@@H](CCCC)C(=O)N[C@@H](C)C(=O)N[C@@H](CCCCN)C(N)=O` [Si15, Caf-KnLAKnLAK-NH2] (Caffeoyl-K[Nle]AK[Nle]AK-NH2), the IC50 in series [1] was found to be 147 ± 7.96 µM; in series [2], 346 ± 7.91 µM; in series [3] (72 h) it was 140 ± 7.12 µM. In series [3], the “selectivity” value is “No selectivity”. Moreover, the IC50 at 24 h in series [4] was 1514 ± 12.2 µM.
As for `N.N.[Cl][Pt][Cl]` [Cisplatin, reference compound], the IC50 in series [2] (setting [6]) was 1.83 ± 0.13 µM.
As for `CC(C)C[C@H](NC(=O)[C@H](CCCCN)NC(=O)CN1C(=O)c2cccc3cccc(c23)C1=O)C(=O)N[C@@H](C)C(=O)N[C@@H](CCCCN)C(=O)N[C@@H](CC(C)C)C(=O)N[C@@H](C)C(=O)N[C@@H](CCCCN)C(N)=O` [Si7, 1,8-naphthalimideG-KLAKLAK-NH2] ({Acetyl(1,8-naphthalimido)}-KLAKLAK-NH2), the values for the IC50 in series [1], in series [2] and in series [3] (72 h) were 1140 ± 64.5 µM, above 2000 µM and 1200 ± 132 µM, respectively. Moreover, the “selectivity” value in series [3] is recorded as “do not show selectivity”. Also, the IC50 at 24 h in series [4] was 3420 ± 51.3 µM.
`CC(C)C[C@H](NC(=O)[C@H](CCCCN)NC(=O)[C@H](C)NC(=O)[C@H](CC(C)C)NC(=O)[C@H](CCCCN)NC(=O)[C@H](CCCCN)NC(=O)[C@H](C)NC(=O)[C@H](CC(C)C)NC(=O)[C@H](CCCCN)NC(=O)[C@H](C)NC(=O)[C@H](CC(C)C)NC(=O)[C@@H](N)CCCCN)C(=O)N[C@@H](C)C(=O)N[C@@H](CCCCN)C(N)=O` [Si1, (KLAKLAK)2-NH2]: the IC50 in series [1] (MCF-10A, MTT, 15 to 2000 μM, read-out: IC50 of Mean ± SD, Antiproliferative Activity, MCF-10A) was 154 ± 6.53 µM; in series [2] (setting [6]), 746 ± 7.6 µM; in series [3] (MCF-7, MTT, 72 h, 15 to 2000 μM, read-out: IC50 of Mean ± SD, Antiproliferative Activity, MCF-7), 124 ± 8.12 µM. The “selective index (SI) with respect to MCF-7” value (“selective index (SI)” for short) in series [3] (SI = IC50 of MCF-10A / IC50 of MCF-7) was 1.24. The IC50 at 24 h in series [4] (BALB/3T3 cells, NRU, 24 h, 30 to 4000 μM, read-out: IC50 of Mean ± SD, Cytotoxicity, BALB/3T3) is 365 ± 4.08 µM. In addition, in series [5] (20 μM, E. coli K12 407, 24 h at 37 °C, three replicates ± SD), the “Average inhibition zones size” value is recorded as 5 ± 0.15 mm. Besides, the “antibacterial effect, zones free of microbial growth (in words)” value (“antibacterial effect, zones free” for short) in series [5] was “clear zones free of microbial growth”.
With `CC(C)C[C@H](NC(=O)[C@H](CCCCN)NC(=O)CCNC(=O)[C@H](CC(C)C)NC(=O)[C@@H](N)CCCCN)C(=O)NCCC(=O)N[C@@H](CCCCN)C(N)=O` [Si3, KLβAKLβAK-NH2] (H-KL[βAla]KL[βAla]K-NH2; N-terminus assumed), the IC50 is 1470 ± 104 µM in series [1], above 2000 µM in series [2] and 176 ± 4.66 µM in series [3] (72 h). Besides, the “selective index (SI)” value in series [3] (72 h) is listed as 8.33. Also, in series [3], the “selectivity” value is “significant selective index”. For the same compound, the IC50 at 24 h in series [4] was found to be 2870 ± 130 µM.
For the compound `CCCC[C@H](NC(=O)[C@H](CCCCN)NC(=O)CN1C(=O)c2cccc3cccc(c23)C1=O)C(=O)N[C@@H](C)C(=O)N[C@@H](CCCCN)C(=O)N[C@@H](CCCC)C(=O)N[C@@H](C)C(=O)N[C@@H](CCCCN)C(N)=O` [Si14, 1,8-naphthalimideG-KnLAKnLAK-NH2] ({Acetyl(1,8-naphthalimido)}-K[Nle]AK[Nle]AK-NH2), the IC50 is 631 ± 51.2 µM in series [1], 1050 ± 49.8 µM in series [2] and 593 ± 60.3 µM in series [3] (72 h). Further, the “selectivity” value in series [3] was “No selectivity”. The compound also came in with an IC50 at 24 h in series [4] of 2890 ± 61.4 µM. Also, the “activity against Escherichia coli K12 407 (in words)” value in series [5] (20 μM) is “moderate activity”. For the same compound, the “antibacterial effect, zones free” value in series [5] is on record as “clear zones free of microbial growth”.
Turning to `CC(C)C[C@H](NC(=O)[C@H](CCCCN)NC(=O)/C=C/c1ccc(O)c(O)c1)C(=O)NCCC(=O)N[C@@H](CCCCN)C(=O)N[C@@H](CC(C)C)C(=O)NCCC(=O)N[C@@H](CCCCN)C(N)=O` [Si11, Caf-KLβAKLβAK-NH2] (Caffeoyl-KL[βAla]KL[βAla]K-NH2), the values for the IC50 in series [1], in series [2] and in series [3] (72 h) were 597 ± 53 µM, 1090 ± 70.7 µM and 229 ± 7.18 µM, respectively. In addition, in series [3] (72 h), the “selective index (SI)” value is on record as 2.62. Further, in series [3], the “selectivity” value is “significant selective index”. The IC50 at 24 h in series [4] is 742 ± 18.5 µM.
In the case of `CC(C)C[C@H](NC(=O)[C@H](CCCCN)NC(=O)[C@H](C)NC(=O)[C@H](CC(C)C)NC(=O)[C@@H](N)CCCCN)C(=O)N[C@@H](C)C(=O)N[C@@H](CCCCN)C(N)=O` [Si6, KLAKLAK-NH2] (H-KLAKLAK-NH2; N-terminus assumed), the IC50 in series [1], in series [2] and in series [3] (72 h) was above 2000 µM in each case. Also, the “selectivity” value in series [3] is recorded as “do not show selectivity”. Also, in series [4], the IC50 at 24 h was above 4000 µM. For the same compound, the “activity against Escherichia coli K12 407 (in words)” value in series [5] (20 μM) was “moderate activity”. In addition, in series [5], the “antibacterial effect, zones free” value was “clear zones free of microbial growth”.

Source of the values: publication PMC7915940, “Synthesis, Antitumor and Antibacterial Studies of New Shortened Analogues of (KLAKLAK)2-NH2 and Their Conjugates Containing Unnatural Amino Acids” (Molecules, 2021).
